Assay results as given in patent US11453647B2, “Benzimidazole derivatives as adenosine receptor antagonists” (Merck Patent GmbH, priority 2017, dated 2022).

How the values were obtained:
[1] = pharmacokinetic properties in mouse after single intravenous and oral administration; type: in vivo; conditions: PK data in mouse; for clearance / half-life / Cmax / Vd: female, plasma, 0.2 mg/kg; for Cmax: dose-normalized to 1 mg/kg; for Vd: read-out: Vss
Description: The objective of the study was to obtain information on the pharmacokinetic properties of the compounds of the present invention in female Wistar rats/mice following single intravenous and oral administration.
Female Wistar rats/mice (n=6) received either a single intravenous (bolus) injection or an oral administration (by gavage) of the tested compound.
The concentrations of the compounds in plasma, feces were quantified using an UPLC method with tandem mass spectrometric detection (LC-MS/MS) previously developed at the ‘Institute of Drug Metabolism and Pharmacokinetics’. The LC-MS/MS system consisted of a Waters Acquity UPLC coupled to an AB Sciex mass spectrometer API 5500 Q-trap. […] The detection of the compounds was performed using multiple reaction monitoring in the positive ionization mode. Plasma samples were spiked with internal standard (20 μl) and the analyte was extracted from the matrix using tertiary-butyl methyl ether (tBME). The organic phase was evaporated to dryness under a stream of nitrogen. The residue was dissolved in acetonitrile/0.1% formic acid for LC-MS/MS analysis. Feces samples were homogenized with 4-times their volume of an ethanol/water mixture (4:1, v/v). Aliquots of the aqueous-ethanolic extracts were spiked with internal standard, diluted with acetonitrile/water (1:1, v/v) and directly injected into the LC-MS/MS system.
Pharmacokinetic parameters Cmax and tmax were taken from the observed data. […] AUC values were calculated by non-compartmental analysis using the linear up/log down method. Numerical data for mean plasma concentrations and derived pharmacokinetic parameters were rounded to 3 significant digits for presentation.

[2] = target: T1, human A3 receptor (Homo sapiens, UniProt P0DMS8); test: functional cAMP (HTRF) assay, recombinant CHO cells expressing human A3 receptor, forskolin, agonist IB-MECA; type: cell-based
T1 construct: expressed in transfected cells; host or cells: CHO
T1 sequence (P0DMS8 1-318): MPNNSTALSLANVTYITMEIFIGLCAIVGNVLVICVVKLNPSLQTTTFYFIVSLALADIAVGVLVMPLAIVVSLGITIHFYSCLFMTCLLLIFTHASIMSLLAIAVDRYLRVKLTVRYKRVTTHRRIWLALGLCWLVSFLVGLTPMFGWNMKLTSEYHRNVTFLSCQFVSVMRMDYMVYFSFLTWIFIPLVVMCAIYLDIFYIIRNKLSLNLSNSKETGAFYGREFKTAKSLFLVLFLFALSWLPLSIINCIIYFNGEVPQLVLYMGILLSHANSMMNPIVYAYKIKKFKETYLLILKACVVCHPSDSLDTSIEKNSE
Summary of the method: (§1)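 Recombinant CHO lines carrying either receptor receive forskolin, compound and the matching agonist, CPA or IB-MECA. After 30 min, HTRF reagents are added and cAMP is quantified. Values are normalized to inhibitor and neutral DMSO controls, then fitted.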

[3] = target: T2, human A1 receptor (Homo sapiens, UniProt P30542); test: functional cAMP (HTRF) assay, recombinant CHO cells expressing human A1 receptor, forskolin, agonist CPA; type: cell-based
T2 construct: expressed in transfected cells; host or cells: CHO
T2 sequence (P30542 1-326): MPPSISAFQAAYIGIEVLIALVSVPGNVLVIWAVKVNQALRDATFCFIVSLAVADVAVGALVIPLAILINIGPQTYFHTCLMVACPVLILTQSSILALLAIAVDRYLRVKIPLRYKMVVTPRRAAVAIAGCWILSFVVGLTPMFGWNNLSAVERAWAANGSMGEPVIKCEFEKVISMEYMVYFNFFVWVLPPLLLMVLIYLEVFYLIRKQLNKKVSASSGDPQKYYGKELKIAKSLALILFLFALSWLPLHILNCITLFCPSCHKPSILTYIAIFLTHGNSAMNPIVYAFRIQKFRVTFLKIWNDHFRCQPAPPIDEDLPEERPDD
Summary of the method: as §1

[4] = target: T3, human A2A receptor (Homo sapiens, UniProt P29274); test: functional cAMP (HTRF) assay, recombinant HEK293 cells expressing human A2A receptor, agonist NECA; type: cell-based
T3 construct: expressed in transfected cells; host or cells: HEK293
T3 sequence (P29274 whole entry): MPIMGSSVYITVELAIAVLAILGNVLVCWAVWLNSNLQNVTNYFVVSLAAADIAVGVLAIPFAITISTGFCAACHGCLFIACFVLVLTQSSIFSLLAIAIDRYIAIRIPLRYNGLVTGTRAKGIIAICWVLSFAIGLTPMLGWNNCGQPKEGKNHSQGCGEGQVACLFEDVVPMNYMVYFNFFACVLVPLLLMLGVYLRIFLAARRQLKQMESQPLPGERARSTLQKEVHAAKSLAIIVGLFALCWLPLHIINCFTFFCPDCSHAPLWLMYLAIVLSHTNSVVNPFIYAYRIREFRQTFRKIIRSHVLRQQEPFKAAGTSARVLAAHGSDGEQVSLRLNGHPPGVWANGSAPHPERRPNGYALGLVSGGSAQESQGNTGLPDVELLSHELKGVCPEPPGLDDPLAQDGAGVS

[5] = target: T4, A2B receptors (Homo sapiens, UniProt P29275); test: functional cAMP (HTRF) assay, recombinant HEK293 cells expressing human A2B receptor, agonist NECA; type: cell-based; set-up: expressed in transfected cells; host or cells: HEK293
T4 sequence (P29275 1-332): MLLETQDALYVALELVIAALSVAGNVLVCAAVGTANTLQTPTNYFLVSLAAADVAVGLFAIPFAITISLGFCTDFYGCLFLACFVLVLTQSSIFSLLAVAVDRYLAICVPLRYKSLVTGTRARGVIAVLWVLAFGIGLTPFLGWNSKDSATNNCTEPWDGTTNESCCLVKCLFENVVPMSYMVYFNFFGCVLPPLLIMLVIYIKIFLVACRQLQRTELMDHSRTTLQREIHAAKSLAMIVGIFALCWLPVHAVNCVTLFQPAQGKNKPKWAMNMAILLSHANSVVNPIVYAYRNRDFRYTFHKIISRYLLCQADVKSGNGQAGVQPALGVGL

SMILES	Feces iv ([1]; @0.08 (dose, unit not given))	clearance [1] [mL/min/kg]	half-life [1] [min]	Cmax [1] [ng/mL]	Vd [1] [L/kg]	Feces iv ([1]; @0.2 (dose, unit not given))	IC50 [2] [µM]	IC50 [3] [µM]	IC50 [4] [µM]	IC50 [5] [µM]
COc1ccc(N2CCOCC2)c2nc(NC(=O)N3CCC(C)(O)CC3)[nH]c12 [compound 21, 4-hydroxy-N-(7-methoxy-4-morpholino-1H-benzimidazol-2-yl)-4-methyl-piperidine-1-carboxamide]	38@0.08%	12.7	50.3	2650	0.508					
COc1ccc(-c2cnn(C)c2)c2nc(NC(=O)N3CCC(C)(O)CC3)[nH]c12 [compound 22, 4-Hydroxy-4-methyl-piperidine-1-carboxylic acid [7-methoxy-4-(1-methyl-1H-pyrazol-4-yl)-1H-benzoimidazol-2-yl]-amide]		19.5	52	1320	1.02	46@0.2%				
COc1ccc(N2CCOCC2)c2nc(NC(=O)c3ccnc(N4CCOCC4)c3)[nH]c12 [compound 23, N-(7-Methoxy-4-morpholin-4-yl-1H-benzoimidazol-2-yl)-2-morpholin-4-yl-isonicotinamide]		10.3	103	733	1.54	11@0.2%				
COc1ccc(-c2cnn(C)c2)c2nc(NC(=O)N3CC[C@]4(CCOC4)C3)[nH]c12 [compound 115, (5S)-N-[7-methoxy-4-(1-methyl-1H-pyrazol-4-yl)-1H-1,3-benzodiazol-2-yl]-2-oxa-7-azaspiro[4.4]nonane-7-carboxamide]		5.4	59.3	2450	0.425	8.6@0.2%				
COc1ccc(-c2cnn(C)c2)c2nc(NC(=O)N3CC[C@@]4(CCOC4)C3)[nH]c12 [compound 116, (5R)-N-[7-methoxy-4-(1-methyl-1H-pyrazol-4-yl)-1H-1,3-benzodiazol-2-yl]-2-oxa-7-azaspiro[4.4]nonane-7-carboxamide]		12.3	58	1130	0.917	16.9@0.2%				
COc1ccc(-c2cccc3[nH]ncc23)c2nc(NC(=O)N3CCC(C)(O)CC3)[nH]c12 [compound 271, 4-hydroxy-N-[4-(1H-indazol-4-yl)-7-methoxy-1H-1,3-benzodiazol-2-yl]-4-methylpiperidine-1-carboxamide]							> 1	> 1	< 0.1	< 0.1
COCCn1cc(C(=O)Nc2nc3c(-c4ccnc5[nH]ccc45)ccc(OC)c3[nH]2)cn1 [compound 278, N-(7-methoxy-4-{1H-pyrrolo[2,3-b]pyridin-4-yl}-1H-1,3-benzodiazol-2-yl)-1-(2-methoxyethyl)-1H-pyrazole-4-carboxamide]							< 1	> 1	< 0.1	< 0.1
COCCn1cc(C(=O)Nc2nc3c(-c4cccc5[nH]ncc45)ccc(OC)c3[nH]2)cn1 [compound 279, N-[4-(1H-indazol-4-yl)-7-methoxy-1H-1,3-benzodiazol-2-yl]-1-(2-methoxyethyl)-1H-pyrazole-4-carboxamide]							< 1	< 1	< 0.1	< 0.1
COCCn1cc(C(=O)Nc2nc3c(-c4ccc5[nH]nc(C)c5c4)ccc(OC)c3[nH]2)cn1 [compound 282, N-[7-methoxy-4-(3-methyl-1H-indazol-5-yl)-1H-1,3-benzodiazol-2-yl]-1-(2-methoxyethyl)-1H-pyrazole-4-carboxamide]							< 1	< 1	< 0.1	< 0.1
COCCn1cc(C(=O)Nc2nc3c(-c4cccc5c4CCN5)ccc(OC)c3[nH]2)cn1 [compound 283, N-[4-(2,3-dihydro-1H-indol-4-yl)-7-methoxy-1H-1,3-benzodiazol-2-yl]-1-(2-methoxyethyl)-1H-pyrazole-4-carboxamide]							< 1	> 1	< 0.1	< 0.1
COc1ccc(-c2ccccc2)c2nc(NC(=O)c3ccc(C(=O)N(C)C)cn3)[nH]c12 [compound 284, N2-(7-methoxy-4-phenyl-1H-1,3-benzodiazol-2-yl)-N5,N5-dimethylpyridine-2,5-dicarboxamide]							> 1	> 1	< 0.1	< 0.1
COc1ccc(-c2ccccc2)c2nc(NC(=O)c3ccc(N4C(=O)CCC4=O)cc3)[nH]c12 [compound 285, 4-(2,5-dioxopyrrolidin-1-yl)-N-(7-methoxy-4-phenyl-1H-1,3-benzodiazol-2-yl)benzamide]							< 1	< 1	< 0.1	< 0.01
COc1ccc(-c2ccccc2)c2nc(NC(=O)N3CCC(F)(F)CC3)[nH]c12 [compound 287, 4,4-difluoro-N-(7-methoxy-4-phenyl-1H-1,3-benzodiazol-2-yl)piperidine-1-carboxamide]							> 1	< 1	< 0.1	< 0.1
COc1ccc(-c2ccccc2)c2[nH]c(NC(=O)c3ccc(C(=O)NCCO)cc3)nc12 [compound 312, N1-(2-hydroxyethyl)-N4-(4-methoxy-7-phenyl-1H-1,3-benzodiazol-2-yl)benzene-1,4-dicarboxamide]							< 1	< 1	< 0.01	< 0.01
COc1ccc(C2=CCOCC2)c2nc(NC(=O)C3CC3)[nH]c12 [compound 314, N-[4-(3,6-dihydro-2H-pyran-4-yl)-7-methoxy-1H-1,3-benzodiazol-2-yl]cyclopropanecarboxamide]							< 1	> 1	< 0.1	< 1
COc1ccc(-c2cccnc2)c2nc(NC(=O)C3CC3)[nH]c12 [compound 315, N-[7-methoxy-4-(pyridin-3-yl)-1H-1,3-benzodiazol-2-yl]cyclopropanecarboxamide]							< 1	> 1	< 0.1	< 0.1
COc1ccc(-c2ccc(F)cc2)c2nc(NC(=O)c3ccc(C(=O)N(C)C)cc3)[nH]c12 [compound 316, N4-[4-(4-fluorophenyl)-7-methoxy-1H-1,3-benzodiazol-2-yl]-N1,N1-dimethylbenzene-1,4-dicarboxamide]							< 1	< 1	< 0.01	< 0.01
COc1ccc(-c2ccc(F)cc2)c2nc(NC(=O)c3ccc(N4C(=O)CCC4=O)cc3)[nH]c12 [compound 317, 4-(2,5-dioxopyrrolidin-1-yl)-N-[4-(4-fluorophenyl)-7-methoxy-1H-1,3-benzodiazol-2-yl]benzamide]							< 1	< 1	< 0.01	< 0.01
COc1ccc(-c2ccc(F)cc2)c2nc(NC(=O)c3cnn(C)c3)[nH]c12 [compound 318, N-[4-(4-fluorophenyl)-7-methoxy-1H-1,3-benzodiazol-2-yl]-1-methyl-1H-pyrazole-4-carboxamide]							< 0.1	< 0.1	< 0.01	< 0.01
